Inconclusive results are not listed. Calls of active or inactive are those of the source.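 How the source made its calls: active means compounds lowering the luciferase signal with a fitted half-maximal dose at most twice their top valid dose (cut at about 30 µM in these data); inconclusive means flat fits with moderate signal loss, or poor fits; inactive means the rest.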
tested on: Clone20 osteoblast Shn3 3'UTR firefly luciferase, 24 h; assay: Schnurri-3 3'UTR-luciferase signal suppressors – cell-based, Clone20 osteoblasts, luminescence, dry powder, set 2, dose response (AID 743417)

Compound	AC50
CCCCC(=O)NC(c1ccc(OC)c(OC)c1)c1ccc2cccnc2c1O (centres undefined)	1.36 µM
Cc1ccc(-c2csc(N3CCC(NS(=O)(=O)c4ccc5c(c4)OCCO5)CC3)n2)cc1	2.15 µM
COc1cc(C)c(C(=O)CC(=O)c2c(C)cc(OC)cc2C)c(C)c1	7.4 µM
Cn1c(SCC(=O)N2CCCc3ccccc32)nc2ccccc2c1=O	3.46 µM
CC(C)(C)OC(=O)NCc1ccc(CNC(=O)c2nc[nH]c2C(=O)NCc2ccc(CNC(=O)OC(C)(C)C)cc2)cc1	5.89 µM
Fc1ccc(-n2nnnc2-c2cnc(-c3cccs3)nc2C(F)(F)F)cc1	4.44 µM
CCCC(=O)N1CCN(c2ccc(NC(=O)c3cc4ccccc4o3)cc2Cl)CC1	4.1 µM
COc1cc(NC(=O)c2cc3c(Cl)nc4ccccc4c3s2)cc(OC)c1OC	24.4 µM
Cc1ccccc1C(=O)N1CCN(c2ccc(NC(=O)c3ccc4c(c3)OCCO4)cc2)CC1	2.17 µM
Fc1ccc(C(OCCN2CCN(CCCc3ccccc3)CC2)c2ccc(F)cc2)cc1	6.17 µM
Cc1ccc(C)c(N2CCN(S(=O)(=O)c3ccc4[nH]c(=O)ccc4c3)CC2)c1	24.2 µM
CCCCn1c(CN2CCN(c3ccccc3)CC2)nc2c1c(=O)n(C)c(=O)n2C	2.05 µM
Cc1cccc(CCN2C(N(C)C)=NC[C@@H]2CC(C)C)c1	1.45 µM
CCCCNS(=O)(=O)c1ccc(S(=O)(=O)NCc2ccncc2)cc1	2.4 µM
NC1=NC[C@@H](CC2CCCCC2)N1CCc1cc(C(F)(F)F)cc(C(F)(F)F)c1	9.92 µM
C=CCNc1nc(N2CCOCC2)c(C#N)c2c1CN(C)CC2	> 70 µM (inactive)
CN(CCO)c1cc(Sc2nc3ccccc3s2)c2nonc2c1[N+](=O)[O-]	1.55 µM
O=C(CN1C(=O)c2ccccc2S1(=O)=O)c1ccc(Cl)cc1Cl	3.53 µM
OC1(c2cccc(C(F)(F)F)c2)CCN(c2ncnc3c2[nH]c2ccc(F)cc23)CC1	1.87 µM
Cc1nnc(NC(=O)c2nc(S(=O)(=O)Cc3ccccc3)ncc2Cl)s1	1.34 µM
Cc1cc(C)c(-c2csc(NC(=O)CCCc3nc4ccccc4c(=O)[nH]3)n2)c(C)c1	2.97 µM
Cc1ccc(-c2nnc(N3CCC(C)CC3)c3ccccc23)cc1C	6.41 µM
NC(c1csc(NC(=O)Nc2cccc(C(F)(F)F)c2)n1)C1CCCCC1 (centres undefined)	4.81 µM
COc1ccc(-c2noc(CCC(=O)NCCCN3CCC(Cc4ccccc4)CC3)n2)cc1	4.03 µM
Cc1ccc(Cn2c(=N)n(CC(O)COc3ccccc3)c3ccccc32)cc1 (centres undefined)	2.46 µM
O=c1[nH]c2ccccc2n1C1CCN(C(CCc2ccccc2)c2nnnn2Cc2ccccc2)CC1 (centres undefined)	1.23 µM

Compound	AC50
C[C@@H]1COC(=O)[C@@H](NC(=O)OCC2c3ccccc3-c3ccccc32)C/C=C\C[C@@H](CC(=O)N(CCO)Cc2ccccc2)C(=O)N1	1.89 µM
C[C@H](O)C#Cc1ccc2c(c1)O[C@@H](CN(C)Cc1ccc(-c3ccccc3)cc1)[C@H](C)CN([C@@H](C)CO)S2(=O)=O	10.3 µM
Cc1nc(SCC(=O)Nc2nc3ccccc3s2)c(C#N)c(C)c1C	< 0.26 µM
CC(C)c1ccc(NC(=O)Nc2nc(C(N)CCc3ccccc3)cs2)cc1 (centres undefined)	5.36 µM
O=[N+]([O-])c1ccc(O)c(-c2cc(C(F)(F)F)nc(-c3ccccc3)n2)c1	2.73 µM
COc1ccc(CCNc2cc(N3CCN(C(=O)c4ccccc4OC)CC3)ccc2[N+](=O)[O-])cc1OC	2.63 µM
C=C1C(=O)OC2CC1C(OC(C)=O)CC(C)=CCCC(C)=CCCC2(C)O (centres undefined)	0.91 µM
O=C(CSc1n[nH]c(-c2ccccn2)n1)Nc1cccc(Cl)c1	2.9 µM
CCN(CC)S(=O)(=O)c1ccc(S(=O)(=O)N2CCCC(C(=O)NC3CC3)C2)cc1 (centres undefined)	2.9 µM
CCOC(=O)C1(Cc2cccc(OC)c2)CCN(C/C=C/c2ccc(OC)cc2)CC1	4.75 µM
CCOc1cc(CNCCc2ccc(S(N)(=O)=O)cc2)ccc1OCc1ccc(Cl)cc1	3.87 µM
CC(=O)NC(c1ccc2ccccc2c1)c1ccc2cccnc2c1O (centres undefined)	0.422 µM
CN(C)CCNC(=O)c1ccc(Cl)c2cc3ccccc3nc12	9.85 µM
C=CCn1c(NCCc2ccccc2)nc2c1c(=O)n(C)c(=O)n2C	1.83 µM
CSc1nnc(NC(=O)c2nc(S(=O)(=O)Cc3ccccc3F)ncc2Cl)s1	1.55 µM
CC(C)CC(N)c1csc(NC(=O)c2cc(C(C)(C)C)nn2Cc2ccccc2)n1 (centres undefined)	4.85 µM
c1coc(CN(Cc2ccco2)c2ncnc3c2oc2ccccc23)c1	5.45 µM
O=C(O)c1cccc(COc2ccc(CO)cc2Cl)c1	1.04 µM
Cc1cccc(N2CCN(C(=O)CSCc3c(C)noc3C)CC2)c1C	2.41 µM
CCN(CC)C(=O)C1CCN(S(=O)(=O)c2ccc3oc4ccccc4c3c2)CC1	3.96 µM
Cc1nn(Cc2noc(C(=O)NC3CCC(C)CC3)n2)c(C)c1Br (centres undefined)	3.28 µM
COc1cc(NS(=O)(=O)c2ccc(C)cc2C)cc(OC)c1OC	4.95 µM
C=C1C(=O)C23C(O)C1CCC2C12CCCC(C)(COC(C)=O)C1C(O)C3(O)OC2 (centres undefined)	0.771 µM
NC(=O)c1ccc(N2CCN(S(=O)(=O)c3cccs3)CC2)c([N+](=O)[O-])c1	0.305 µM
COC(=O)[C@]1(C)CCC[C@@]2(C)C3CC[C@@]4(C)C[C@]3(CCC21)CC(=O)N4Cc1ccc(OC)cc1 (some centres undefined)	8.16 µM
O=C(Nc1nc2c(F)cc(F)cc2s1)c1ccccn1	6.69 µM

Compound	AC50
CC(C)c1nnc(NC(=O)CCS(=O)(=O)c2nc(-c3cccs3)cc(C(F)(F)F)n2)s1	3.02 µM
CCCc1nnc(NC(=O)c2nc(S(=O)(=O)Cc3ccc(C)cc3)ncc2Cl)s1	0.538 µM
Cc1cc(C)c(CN2CCN(C(=O)Cn3cnc4c(NCc5ccccc5)ncnc43)CC2)c(C)c1	0.417 µM
Cc1cccc(NC(=O)c2nc(S(=O)(=O)Cc3ccccc3)ncc2Cl)c1	2.66 µM
C=C1C(=O)OC2C=C(CO)C3OC3C3OC3(C)CC(OC(=O)/C(=C/C)COC(C)=O)C12 (centres undefined)	5.89 µM
CC1=C(C(=O)OC2CCCCC2)C(c2cccnc2)n2nnnc2N1 (centres undefined)	3.23 µM
O=S(=O)(/C(=C\c1ccc(C(F)(F)F)cc1)c1nc2ccccc2[nH]1)c1ccccc1	1.85 µM
Cc1ccc(C)c(S(=O)(=O)N2CCN(c3ncnc4sccc34)CC2)c1	0.631 µM
COc1ccc(-c2cc(C(F)(F)F)nc(S(=O)(=O)CCCC(=O)Nc3cccnc3Cl)n2)cc1OC	3.17 µM
O=C(NNC(=O)c1cccnc1SCc1cccc([N+](=O)[O-])c1)c1ccccn1	1.9 µM
COc1ccc(/C=C/C(=O)NC(=S)NNC(=O)c2cnccn2)cc1	15.5 µM
CCc1ccc(O)c(CNCCNCc2cc(CC)ccc2O)c1	1.38 µM
COc1ccc(C(=O)NCCN(C)C)c2nc3ccccc3cc12	5.78 µM
FC(F)(F)c1cccc(NC(=S)NC(c2ccccc2)c2ccccc2)c1	7.17 µM
CCN(CC)C(=S)Sc1c(-c2ccccc2)c2cc(Cl)ccc2[nH]c1=O	27 µM
CC1=C(C(=O)NC2CCCc3c2cnn3-c2cccc(C)c2C)OCCO1 (centres undefined)	3.49 µM
Cc1ccc(-c2nc(-c3ccccn3)no2)cc1	1.96 µM
CCN(CC)CC(C)(C)C(=O)/C=C/c1ccc(/C=C/C(=O)C(C)(C)CN(CC)CC)cc1	0.468 µM
Cc1cc(Sc2ncnc(N)c2[N+](=O)[O-])ncn1	5.7 µM
COc1ccc(OC)c(NC(=O)COC(=O)c2c3c(nc4ccccc24)CCCC3)c1	8.67 µM
Cc1sc2ncnc(NCC(C)(C)N3CCOCC3)c2c1C	1.36 µM
C=C1C(=O)[C@]23C[C@H]1CCC2[C@]1(C)CCC[C@@](C)(C(=O)O)C1C[C@@H]3O (some centres undefined)	1.2 µM
COc1ccc(C(=O)NC(=S)NNC(=O)c2ccc3ccccc3n2)cc1	4.32 µM
Cc1cc(S(=O)(=O)c2ccc(Cl)cc2)nc(S(=O)(=O)c2ccc(Cl)cc2)c1C#N	2.83 µM
O=C(c1nnsc1S(=O)c1ccc(Cl)cc1)N1CCOCC1 (centres undefined)	0.93 µM
C#CC(=O)N(c1cc(OC)ccc1OC)C(C(=O)NC1CCCC1)c1cccs1 (centres undefined)	4.57 µM

Compound	AC50
CCn1c(CNC(=O)c2cc(OC)c(OC)c(OC)c2)cc2cc(C)ccc21	2.52 µM
C=C1C(=O)[C@@]23[C@H](O)C[C@@H]4C(C)(C)CC[C@H](O)[C@]4(C)[C@@H]2C[C@H](O)[C@@H]1[C@H]3O	2.95 µM
CN(CC(=O)Nc1ccccc1Cl)C(=O)c1cccc(S(=O)(=O)N2CCN(c3ccccc3)CC2)c1	3.84 µM
COc1cccc(CN(C)C(=O)c2cc(COc3ccc4ncccc4c3)on2)c1	1.49 µM
O=C(Oc1c(CN2CCOCC2)cc(Cl)c2cccnc12)c1ccccc1Cl	4.59 µM
Cc1c(CCCl)c(Cl)n2c(nc3ccccc32)c1C#N	0.912 µM
CCc1ccc(CNC(=O)c2cc3c(C)nc4ccccc4c3o2)cc1	2.02 µM
COc1ccccc1N1CCN(c2ncc(C(=O)N3CCN(c4cccc(Cl)c4)CC3)c3ccccc23)CC1	0.572 µM
CC(Nc1ncnc2ccccc12)c1ccccc1 (centres undefined)	0.355 µM
COC(=O)C1=C(c2ccc(OCc3ccccc3)cc2)C[C@@H]2CC[C@H]1N2C(=O)NCc1ccc(C(C)(C)C)cc1	6.84 µM
O=C(Nc1ccc(N2CCOCC2)c(Cl)c1)c1ccc([N+](=O)[O-])o1	6.23 µM
COC(=O)c1cc2c(n1S(=O)(=O)c1ccc(C)cc1)C(=O)C(=O)c1[nH]cc(C(=O)OCc3ccccc3)c1-2	1.2 µM
CC(C)C[C@H]1CNC(=S)N1CC1CCN(CC2CCC(C(C)(C)C)CC2)CC1 (some centres undefined)	4.05 µM
COc1ccc(CN2CCC(C(=O)Nc3ccc(Oc4cccnc4)cc3)CC2)c(C)c1C	3.68 µM
O=C(c1ccccc1)C(CN1CCCCC1)c1ccccc1 (centres undefined)	2.41 µM
Cc1c(C(=O)Nc2cccc(C(F)(F)F)c2)oc2ccc(S(=O)(=O)N3CCOCC3)cc12	3.8 µM
Cc1ccccc1CN1CC2=C(CCN(Cc3ccccc3)C2=O)N2CCN=C12	2.41 µM
CCOC(=O)c1c(NC(=O)C2c3ccccc3Oc3ccccc32)sc(C(C)=O)c1C	4.67 µM
Cc1ccc(CS(=O)(=O)c2ncc(Cl)c(C(=O)Nc3nnc(C)s3)n2)cc1	0.639 µM
COc1ccccc1OCC(O)Cn1c(=N)n(Cc2ccccc2)c2ccccc21 (centres undefined)	4.01 µM
CC(C)(C)C(=O)/C(=C/c1ccc(Cl)cc1)n1cncn1	3.75 µM
CC(C)c1ccc(NC(=O)Nc2nc(C(N)COCc3ccccc3)cs2)cc1 (centres undefined)	5.99 µM
Cc1nc2ccc(NC(=O)c3cccc(S(=O)(=O)N(C)c4ccccc4)c3)cc2s1	7.6 µM
O=C(NNC(=O)C(c1ccccc1)c1ccccc1)c1ccccn1	2.87 µM
Cc1ccc(Nc2nc(NCC3CC3)nc3ccsc23)c(C)c1	5.82 µM
CC(C)(CNC(=O)c1ccc(Cl)c(S(=O)(=O)N2CCc3ccccc3C2)c1)N1CCOCC1	10.5 µM
